Measured values taken from patent publication US9339503B2, “Tetrahydro-quinazolinone derivatives as TANK and PARP inhibitors” (MERCK PATENT GMBH, priority 2012, dated 2016).

Assays:
tankyrase 1/2 = assay: Measurement of cellular inhibition of tankyrase (Axin2 level, Luminex based assay, DLD1 cells); conditions: 24 hours, increase of Axin2 level, read-out: EC50 tankyrase 1/2 (cell assay)
Method: Measurement of Cellular Inhibition of Tankyrase
Since Tankyrases have been described to modulate cellular level of Axin2 (Huang et al., 2009; Nature) the increase of Axin2 level is used as read-out for determination of cellular inhibition of Tankyrases in a Luminex based assay.
Cells of the colon carcinoma cell line DLD1 are plated in 96 well plates with 1.5×10^4 cells per well. Next day, cells are treated with a serial-dilution of test compound in seven steps as triplicates with a final DMSO concentration of 0.3%. After 24 hours, cells are lysed in lysis buffer (20 mM Tris/HCl pH 8.0, 150 mM NaCl, 1% NP40, 10% Glycerol) and lysates are cleared by centrifugation through a 96 well filter plate (0.65 μm). Axin2 protein is isolated from cell lysates by incubation with a monoclonal anti-Axin2 antibody (R&D Systems #MAB6078) that is bound to fluorescent carboxybeads. Then, bound Axin2 is specifically detected with a polyclonal anti-Axin2 antibody (Cell Signaling #2151) and an appropriate PE-fluorescent secondary antibody. The amount of isolated Axin2 protein is determined in a Luminex^200 machine (Luminex Corporation) according to the manufacturer's instruction by counting 100 events per well. […] For analysis, the obtained data were normalized against the untreated solvent control and fitted for determination of the EC50 values using the Assay Explorer software (Accelrys).

[1] = target: T1, GST-tagged Tnks-1 (1023-1327 aa) (Homo sapiens, UniProt O95271); assay: TNKS 1 activity ELISA (autoparsylation assay); format: biochemical; conditions: read-out: IC50 tankyrase 1 (ELISA assay)
T1 construct: GST-tagged Tnks-1 (1023-1327 aa, prepared in-house); made in house
T1 sequence (O95271 1023-1327): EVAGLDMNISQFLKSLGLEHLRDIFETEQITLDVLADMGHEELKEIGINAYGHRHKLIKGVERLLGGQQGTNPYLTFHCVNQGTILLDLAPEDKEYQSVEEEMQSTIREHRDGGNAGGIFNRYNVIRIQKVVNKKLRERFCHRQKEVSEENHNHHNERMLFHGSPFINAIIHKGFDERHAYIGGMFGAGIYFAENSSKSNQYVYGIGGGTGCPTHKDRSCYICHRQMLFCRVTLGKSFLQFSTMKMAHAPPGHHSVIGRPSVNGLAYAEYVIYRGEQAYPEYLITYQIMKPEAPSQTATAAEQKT
Method: Biochemical Activity Testing of TNKS 1 and 2: Activity ELISA (Autoparsylation Assay)
For analysis of autoparsylation activity of TNKS 1 and 2 an activity ELISA was performed: In the first step GST tagged TNKS was captured on a Glutathione coated plate. Then the activity assay with biotinylated NAD was performed in the absence/presence of the compounds. During the enzymatic reaction GST tagged TNKS transferred biotinylated ADP-ribose to itself from biotinylated NAD as co-substrate. For the detection streptavidin-HRP conjugate was added that bound to the biotinylated TNKS and was thereby captured to the plates. The amount of biotinylated resp autoparsylated TNKS was detected with a luminescence substrate for HRP. The level of the luminescence signal correlated directly with the amount of autoparsylated TNKS and therefore with activity of TNKS.
The activity ELISA was performed in 384 well Glutathione coated microtiter plates (Express capture Glutathione coated plate, Biocat, Heidelberg, Germany). The plates were pre-equilibrated with PBS. Then the plates were incubated with 50 μl 20 ng/well GST-tagged Tnks-1 (1023-1327 aa, prepared in-house), respectively GST-tagged Tnks-2 (873-1166 aa, prepared in-house) in assay buffer (50 mM HEPES, 4 mM Mg-chloride, 0.05% Pluronic F-68, 2 mM DTT, pH 7.7) overnight at 4° C. The plates were washed 3 times with PBS-Tween-20. The wells were blocked by incubation at room temperature for 20 minutes with 50 μl blocking buffer (PBS, 0.05% Tween-20, 0.5% BSA). Afterwards the plates were washed 3 times with PBS-Tween-20. The enzymatic reaction was performed in 50 μl reaction solution (50 mM HEPES, 4 mM Mg-chloride, 0.05% Pluronic F-68, 1.4 mM DTT, 0.5% DMSO, pH 7.7) with 10 μM bio-NAD (Biolog, Life science Inst., Bremen, Germany) as co-substrate in the absence or presence of the test compound (10 dilution concentrations) for 1 hour at 30° C. The reaction was stopped by 3 times washing with PBS-Tween-20. For the detection 50 μl of 20 ng/μl Streptavidin, HRP conjugate (MoBiTec, Göttingen, Germany) in PBS/0.05% Tween-20/0.01% BSA were added and the plates were incubated for 30 minutes at room temperature. After three times washing with PBS-Tween-20 50 μl of SuperSignal ELISA Femto Maximum sensitivity substrate solution (ThermoFisherScientific (Pierce), Bonn, Germany) were added. Following a 1 minute incubation at room temperature luminescence signals were measured with an Envision multimode reader (Perkin Elmer LAS Germany GmbH) at 700 nm. The full value used was the inhibitor-free reaction. The pharmacological zero value used was XAV-939 (Tocris) in a final concentration of 5 μM. The inhibitory values (IC50) were determined using either the program Symyx Assay Explorer® or Condosseo® from GeneData.

His-tagged Parp-1 = target: T2, His-tagged Parp-1 (Homo sapiens, UniProt P09874); assay: PARP-1 autoparsylation assay (HTRF); format: biochemical; conditions: read-out: IC50 PARP1
T2 construct: purchased Enzo Life Sciences GmbH, Lörrach, Germany
T2 sequence (P09874 whole entry): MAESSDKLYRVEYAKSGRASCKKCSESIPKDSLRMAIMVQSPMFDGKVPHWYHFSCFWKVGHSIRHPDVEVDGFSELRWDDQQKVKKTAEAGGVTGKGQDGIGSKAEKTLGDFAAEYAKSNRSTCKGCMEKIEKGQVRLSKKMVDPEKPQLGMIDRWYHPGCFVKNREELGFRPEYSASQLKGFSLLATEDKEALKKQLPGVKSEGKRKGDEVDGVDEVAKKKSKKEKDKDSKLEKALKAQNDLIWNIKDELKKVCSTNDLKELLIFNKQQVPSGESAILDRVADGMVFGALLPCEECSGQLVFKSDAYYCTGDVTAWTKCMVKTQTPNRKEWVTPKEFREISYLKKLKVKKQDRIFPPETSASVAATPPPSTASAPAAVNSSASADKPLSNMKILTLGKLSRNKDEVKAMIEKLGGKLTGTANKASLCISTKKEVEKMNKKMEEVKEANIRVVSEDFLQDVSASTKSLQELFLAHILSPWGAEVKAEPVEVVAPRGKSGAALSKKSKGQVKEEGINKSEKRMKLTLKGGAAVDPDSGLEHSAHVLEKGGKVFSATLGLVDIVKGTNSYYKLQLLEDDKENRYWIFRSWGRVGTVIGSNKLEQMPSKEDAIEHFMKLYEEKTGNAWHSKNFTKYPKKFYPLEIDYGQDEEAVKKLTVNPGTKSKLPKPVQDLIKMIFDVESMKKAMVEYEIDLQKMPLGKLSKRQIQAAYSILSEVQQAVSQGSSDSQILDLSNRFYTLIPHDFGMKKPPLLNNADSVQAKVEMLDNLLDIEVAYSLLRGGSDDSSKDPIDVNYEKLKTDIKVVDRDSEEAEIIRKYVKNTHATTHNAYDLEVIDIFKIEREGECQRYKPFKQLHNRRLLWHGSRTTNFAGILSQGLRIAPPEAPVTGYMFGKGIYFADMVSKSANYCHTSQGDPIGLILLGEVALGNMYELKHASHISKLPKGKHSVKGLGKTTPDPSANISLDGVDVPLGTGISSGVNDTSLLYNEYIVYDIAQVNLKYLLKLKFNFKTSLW
Method: Biochemical Activity Testing of PARP-1: Autoparsylation Assay
The autoparsylation assay was run in two steps: the enzymatic reaction in which His-tagged Parp-1 transferred biotinylated ADP-ribose/ADP-ribose to itself from biotinylated NAD/NAD as co-substrate and the detection reaction where a time resolved FRET between cryptate labelled anti-His antibody bound to the His tag of the enzyme and Xlent® labelled-streptavidin bound the biotin-parsylation residue was analysed. The autoparsylation activity was detectable directly via the increase in HTRF signal.
The autoparsylation assay was performed as 384-well HTRF® (Cisbio, Codolet, France) assay format in Greiner low volume nb 384-well microtiter plates. 35 nM His-tagged Parp-1 (human, recombinant, Enzo Life Sciences GmbH, Lörrach, Germany) and a mixture of 125 nM bio-NAD (Biolog, Life science Inst., Bremen, Germany) and 800 nM NAD as co-substrate were incubated in a total volume of 6 μl (100 mM Tris/HCl, 4 mM Mg-chloride, 0.01% IGEPAL® CA630, 1 mM DTT, 0.5% DMSO, pH 8, 13 ng/μl activated DNA (BPS Bioscience, San Diego, US)) in the absence or presence of the test compound (10 dilution concentrations) for 150 min at 23° C. The reaction was stopped by the addition of 4 μl of the Stop/detection solution (70 nM SA-Xlent® (Cisbio, Codolet, France), 2.5 nM Anti-His-K® (Eu-labelled anti-His, Cisbio, Codolet, France) in 50 mM HEPES, 400 mM KF, 0.1% BSA, 20 mM EDTA, pH 7.0). After 1 h incubation at room temperature the HTRF was measured with an Envision multimode reader (Perkin Elmer LAS Germany GmbH) at excitation wavelength 340 nm (laser mode) and emission wavelengths 615 nm and 665 nm. The ratio of the emission signals was determined. The full value used was the inhibitor-free reaction. The pharmacological zero value used was Olaparib (LClabs, Woburn, US) in a final concentration of 1 μM. The inhibitory values (IC50) were determined using either the program Symyx Assay Explorer® or Condosseo® from GeneData.

Compound	EC50 (tankyrase 1/2)	IC50 [1]	IC50 (His-tagged Parp-1)
O=c1[nH]c(N2CCN(c3ccc(F)cc3)CC2)nc2c1CCCC2 [Compound A6, 2-[4-(4-Fluorophenyl)piperazin-1-yl]-5,6,7,8-tetrahydro-3H-quinazolin-4-one]	300 to 3000 nM	< 300 nM	300 to 3000 nM
COc1cccc(N2CCN(c3nc4c(c(=O)[nH]3)CCCC4)CC2)c1 [Compound A7, 2-[4-(3-Methoxyphenyl)piperazin-1-yl]-5,6,7,8-tetrahydro-3H-quinazolin-4-one]	300 to 3000 nM	< 300 nM	300 to 3000 nM
N#Cc1ccccc1N1CCN(c2nc3c(c(=O)[nH]2)CCCC3)CC1 [Compound A33, 2-[4-(4-oxo-5,6,7,8-tetrahydro-3H-quinazolin-2-yl)piperazin-1-yl]benzonitrile]	300 to 3000 nM	< 300 nM	300 to 3000 nM
COc1cc(F)ccc1N1CCN(c2nc3c(c(=O)[nH]2)CCCC3)CC1 [Compound A36, 2-[4-(4-fluoro-2-methoxy-phenyl)piperazin-1-yl]-5,6,7,8-tetrahydro-3H-quinazolin-4-one]	300 to 3000 nM	< 300 nM	300 to 3000 nM
O=c1[nH]c(N2CCN(c3ccccc3Cl)CC2)nc2c1CCCC2 [Compound A9, 2-[4-(2-Chlorophenyl)piperazin-1-yl]-5,6,7,8-tetrahydro-3H-quinazolin-4-one]	300 to 3000 nM	< 300 nM	300 to 3000 nM
COc1ccccc1N1CCN(c2nc3c(c(=O)[nH]2)CCCC3)CC1 [Compound A12, 2-[4-(2-Methoxyphenyl)piperazin-1-yl]-5,6,7,8-tetrahydro-3H-quinazolin-4-one]	300 to 3000 nM	< 300 nM	300 to 3000 nM
COc1ccc(N2CCN(c3nc4c(c(=O)[nH]3)CCCC4)CC2)cc1 [Compound A3, 2-[4-(4-methoxy-phenyl)-piperazin-1-yl]-5,6,7,8-tetrahydro-3H-quinazolin-4-one]	300 to 3000 nM	< 300 nM	< 300 nM
